Measurements published in publication PMC8568133, “Evaluation of bisphenylthiazoles as a promising class for combating multidrug-resistant fungal infections” (PLoS ONE, 2021).
Values after ≈ are worked out from the molar mass of the structure shown. Like-named read-outs stand apart in the source and are kept apart here.

Legend:
[1] = test system: MRSA USA300; assay: Broth microdilution MIC, initial antibacterial screening; assay type: cell-based, S. aureus; conditions: Staphylococcus aureus; MRSA USA300; read-out: MIC
Procedure, shortened: (§1)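 Broth microdilution per CLSI with ~5 × 10^5 CFU/mL inoculum and serially diluted compounds. S. aureus and E. coli were tested in CAMHB, aerobic, 37 °C, 18–20 h; C. difficile in supplemented brain heart infusion broth (yeast extract, hemin, vitamin K), anaerobic, 37 °C, 48 h. MIC read as visible growth.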

[2] = test system: C. difficile ATCC BAA1870; assay: Broth microdilution MIC, initial antibacterial screening (anaerobic); assay type: cell-based, Clostridioides difficile; conditions: Clostridioides difficile, ATCCBAA1870, read-out: MIC
Procedure, shortened: as §1

[3] = test system: E. coli JW55031 (tolC-mutant); assay: microbe, parasite or virus in culture; assay type: cell-based, Escherichia coli; conditions: Escherichia coli
Procedure, shortened: as §1

[4] = test system: E. coli BW25113 (wild-type); assay: Broth microdilution MIC, initial antibacterial screening; assay type: cell-based, Escherichia coli; conditions: Escherichia coli, read-out: MIC
Procedure, shortened: as §1

[5] = test system: Candida albicans; assay: Antifungal broth microdilution MIC (50% growth inhibition) and MFC; assay type: cell-based; conditions: Candida albicans; for MIC: read-out: MIC
Procedure, shortened: (§2)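 Clinical isolates were tested in triplicate by CLSI broth microdilution over 128–0.06 μg/mL. MIC was the lowest concentration giving 50% growth inhibition after 35 °C incubation, 24 h for Candida, 48 h for Cryptococcus. For MFC, wells without growth were plated on YPD agar, 37 °C for 24 hours; MFC meant 99.9% growth reduction.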

[6] = test system: Candida tropicalis; assay: as above; assay type: cell-based; conditions: Candida tropicalis, ATCC1369, C. tropicalis ATCC 1369
Procedure, shortened: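 CLSI broth microdilution, 128 to 0.06 μg/mL in triplicate, on clinical isolates; MIC is lowest concentration giving 50% growth inhibition after 24 h (Candida) or 48 h (Cryptococcus) at 35 °C. MFC: no-growth wells plated on YPD agar, 24 h at 37 °C, 99.9% reduction; three independent repeats.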

[7] = test system: Cryptococcus gattii; assay: Antifungal broth microdilution MIC (50% growth inhibition, 48 h); assay type: cell-based; conditions: Cryptococcus gattii, read-out: MIC
Procedure, shortened: as §2

[8] = test system: Cryptococcus neoformans; assay: as above; assay type: cell-based; conditions: Cryptococcus neoformans, read-out: MIC
Procedure, shortened: as §2

[9] = test system: Aspergillus fumigatus; assay: Antifungal broth microdilution MIC (50% growth inhibition); assay type: cell-based; conditions: Aspergillus fumigatus
Procedure, shortened: as §2

[10] = test system: Candida parapsilosis; assay: as above; assay type: cell-based; conditions: Lodderomyces parapsilosis, read-out: MIC
Procedure, shortened: as §2

[11] = test system: Candida strains; assay: Minimum fungicidal concentration, summary over Candida strains; assay type: cell-based; conditions: strains of Table 6
Experimental: Serial dilutions (from 128 μg/mL to 0.06 μg/mL) of the tested compounds and control drugs (fluconazole, itraconazole and amphotericin) (in triplicates), were screened against clinical isolates of Candida albicans, Candida auris, Candida glabrata, Candida parapsilosis, Candida tropicalis, Candida krusei, Cryptococcus neoformans, Cryptococcus gattii and Aspergillus fumigatus species using the broth microdilution method according to the Clinical and Laboratory Standards Institute guidelines. MICs were determined as the lowest concentration of the compounds that inhibited the fungal growth by 50% after incubation at 35 °C for 24 h (for Candida and Aspergillus), or 48 h (for Cryptococcus). The minimum fungicidal concentration (MFC) of these compounds was tested by plating 4 μL from wells with no growth onto YPD agar plates. The plates were incubated at 37 °C for 24 hours before recording the MFC, which was categorized as the lowest concentration that reduced fungal growth by 99.9% [45]. The experiment was repeated three independent times.

[12] = test system: human colorectal cells (Caco-2); assay: In vitro cytotoxicity, MTS assay; conditions: human, 24 h
Experimental: (§3) Fig 2 In vitro cytotoxicity assay of bisphenylthiazole compounds 7, 16 and 17 (tested in triplicates at 32, 64 and 128 μg/mL) against: A) human colorectal cells (Caco-2), and B) monkey kidney epithelial cells (Vero) after 24-hours exposure time, using the MTS 3-(4,5-dimethylthiazol-2-yl)-5-(3-carboxymethoxyphenyl)-2-(4-sulfophenyl)-2H-tetrazolium) assay. The data represent the percentage of viable Caco-2 or Vero cells measured as the average absorbance relative to DMSO after exposure to the tested compounds. Dimethyl sulfoxide (DMSO) was used as a negative control. Error bars represent the standard deviation values.
(§4) To explore the tolerability of bisphenylthiazoles, their cytotoxicity profile was assessed in human colorectal adenocarcinoma (Caco-2) and monkey kidney epithelial cells (Vero) as described earlier. Briefly, compounds were incubated with the cells for 24 hours. Then, cells were incubated with MTS reagent for 3 hours before measuring the absorbance values (OD490). The experiment was repeated in two independent times.

[13] = test system: monkey kidney epithelial cells (Vero); assay: In vitro cytotoxicity, MTS assay
Experimental: as §3, §4

[14] = test system: Candida auris; assay: Checkerboard assay of compound 17 with standard antifungals; assay type: cell-based; conditions: for MIC: Candidozyma auris, checkerboard, agent alone
[15] = ATCC10231, C. albicans ATCC 10231

## Cc1nc(-c2ccc(-c3ccccc3)cc2)sc1-c1nnc(N[C@@H]2CCCC[C@@H]2N)o1 (relative stereo) [Compound 17, cis-N-{5-[2-((1,1’-Biphenyl)-4-yl)-4-methylthiazol-5-yl]-1,3,4-oxadiazol-2-yl}cyclo-hexane-1,2-diamine]
[1]
  MIC: > 64 µg/mL
[2]
  MIC: 64 µg/mL (≈ 148 µM)
[3]
  MIC: > 64 µg/mL
[4]
  MIC: > 64 µg/mL
[5]; [15]
  MFC: > 64 µg/mL
  MIC: 4 µg/mL (≈ 9.27 µM)
[5]; C. albicans NR-29448 (fluconazole-resistant)
  MIC: 2 µg/mL (≈ 4.63 µM)
[5]; C. albicans SS5314 (wild-type)
  MIC: 1 µg/mL (≈ 2.32 µM)
[5]; C. albicans NR-29448
  MFC: > 64 µg/mL
[6]
  MFC: > 64 µg/mL
[6]; read-out: MIC
  MIC: 4 µg/mL (≈ 9.27 µM)
[7]; C. gattii NR 43209
  MIC: 0.5 µg/mL (≈ 1.16 µM)
[7]; C. gattii NR 43210
  MIC: 0.5 µg/mL (≈ 1.16 µM)
[8]; C. neoformans NR 41298
  MIC: 1 µg/mL (≈ 2.32 µM)
[8]; C. neoformans NR 41300
  MIC: 1 µg/mL (≈ 2.32 µM)
[8]; C. neoformans NR 48770
  MIC: 1 µg/mL (≈ 2.32 µM)
[9]; A. fumigatus NR 35303, read-out: MIC
  MIC: 4 µg/mL (≈ 9.27 µM)
[9]; A. fumigatus NR 35304, read-out: MIC
  MIC: 4 µg/mL (≈ 9.27 µM)
[9]; tested A. fumigatus isolates (Table 5), read-out: MIC against Aspergillus fumigatus
  MIC: 4 µg/mL (≈ 9.27 µM)
[10]; ATCC22019, C. parapsilosis ATCC 22019
  MIC: 1 µg/mL (≈ 2.32 µM)
[10]; C. parapsilosis CAB 502638
  MIC: 1 µg/mL (≈ 2.32 µM)
[11]
  fungistatic or fungicidal activity: fungistatic
[12]
  concentration up to which non-toxic: ≤ 64 µg/mL
[13]; Vero, 24 h exposure, MTS
  concentration up to which non-toxic: ≤ 64 µg/mL
[13]; relative to amphotericin B
  times more tolerable than amphotericin B: 16 times
[14]; Candida auris 381, compound 17 in combination with 5-Fluorocytosine
  MIC Combined, 17: 0.25 µg/mL
[14]; Candida auris 381, compound 17 in combination with Amphotericin B
  MIC Combined, 17: 0.25 µg/mL
[14]; Candida auris 381, compound 17 in combination with Caspofungin
  MIC Combined, 17: 0.25 µg/mL
[14]; Candida auris 381, compound 17 in combination with Fluconazole
  MIC Combined, 17: 0.25 µg/mL
[14]; Candida auris 385, compound 17 in combination with 5-Fluorocytosine
  MIC Combined, 17: 0.25 µg/mL
[14]; Candida auris 385, compound 17 in combination with Amphotericin B
  MIC Combined, 17: 0.25 µg/mL
[14]; Candida auris 385, compound 17 in combination with Caspofungin
  MIC Combined, 17: 0.25 µg/mL
[14]; Candida auris 385, compound 17 in combination with Fluconazole
  MIC Combined, 17: 2 µg/mL
[14]; Candida auris 381 (azole-sensitive)
  MIC: 1 µg/mL
[14]; Candida auris 385 (azole-resistant)
  MIC: 2 µg/mL
[14]; combined with either fluconazole, 5-fluorocytosine or caspofungin, two tested C. auris isolates
  relationship when combined with antifungals: additive
other
  melting point: 145 to 146 °C
